Laboratory results: patent US4547507A, “Benzothiopyranopyridinones” (Roussel Uclaf, priority 1982, dated 1985)
Where a name gives a salt, the structure may show the parent alone.

Experiments:
[1] = biological target: rat striatal dopamine receptor (Rattus norvegicus, UniProt P61169); assay: Test A: [3H]Spiroperidol displacement from rat striatal dopamine receptor binding sites; settings: rat striatal membranes, [3H]spiroperidol 0.19 nM, 37° C., 10 minutes, pH 7.6; read-out: Test A receptor DA IC50
Sequence of rat striatal dopamine receptor (P61169 whole entry): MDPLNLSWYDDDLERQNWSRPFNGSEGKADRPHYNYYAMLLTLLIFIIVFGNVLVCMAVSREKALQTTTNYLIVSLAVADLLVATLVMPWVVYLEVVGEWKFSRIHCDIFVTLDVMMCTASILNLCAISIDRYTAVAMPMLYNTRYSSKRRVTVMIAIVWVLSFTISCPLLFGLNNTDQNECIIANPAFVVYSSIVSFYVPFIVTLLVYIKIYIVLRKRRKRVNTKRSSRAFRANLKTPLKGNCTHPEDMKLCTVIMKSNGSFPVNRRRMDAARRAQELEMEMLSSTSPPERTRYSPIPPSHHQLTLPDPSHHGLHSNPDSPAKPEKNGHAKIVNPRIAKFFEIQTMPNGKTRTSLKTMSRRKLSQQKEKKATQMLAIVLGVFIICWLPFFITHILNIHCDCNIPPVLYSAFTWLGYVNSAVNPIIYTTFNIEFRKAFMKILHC
Method: Test A--[^3 H Spiroperidol displacement from rat striatal dopamine receptor binding sites
(a) Radioligand--[phenyl-4-(n)-^3 H]Spiroperido (Amersham International, TRK 570, 21 Ci/mmol was used as a 1 μCi/1 μl solution in ethanol and this solution was diluted to 250 μCi in 1 ml of ethanol to produce a stock solution. This stock solution was diluted 3.2/10,000 in assay buffer and 0.1 ml volumes of this were added to 2 ml binding assays =0.19 nM [^3 H]spiroperidol and =[…]
(b) Assay buffer--The assay buffer was a modified 50 mM Tris HCl buffer with a pH of 7.6 containing the following additions: NaCl-120 mM, KCl-5 mM, MgCl2 -1 mM, CaCl2 -2 mM, Pargyline-10 μM and 1-Ascorbic Acid-0.1%
(c) Membrane preparation--The striata were dissected from male CFHB rats and homogenized in 20 volumes of ice cold 0.32M sucrose with a Teflon/glass homogenizer and the homogenate was centrifuged at 1000 g for 10 minutes. The resulting supernatant was recentrifuged at 30,000 g for 30 minutes and the supernatant was discarded and the pellet was resuspended by homogenization in 30 volumes of ice cold assay buffer.
(d) Non-specific binding--Non-specific binding was accounted for by the inclusion of 1 μM(+)butaclamol in blank binding assays which required a stock solution of 20 μM in distilled water.
(e) Displacing compounds--Solutions were prepared at 20x final assay concentration in distilled water.
(f) Binding assay protocol--1.3 ml assay buffer, 0.5 ml membrane suspension, 0.1 ml distilled H2 O or drug solution and 0.1 ml [^3 H]spiroperidol dilution Binding assays were made up in ice with the [^3 H]spiroperidol being added last and incubated at 37° C. for 10 minutes. The bound ligand was separated by filtration through Whatman GF/C filters under vacuum followed by 2×10 ml rinses of ice cold assay buffer. The filters were dried at 80° C. and counted in 5 ml volumes of ECONOFLUOR (NEN) scintillation cocktail. All binding assays, controls, blanks and each of four displacer concentration were run in triplicate. IC50 values (Test A) were obtained graphically from log dose versus percent inhibition of specific binding plots.

[2] = biological target: rat cortical muscarinic receptor; assay: Test D: [3H]Quinuclidinyl benzylate displacement from rat cortical muscarinic receptor binding sites; settings: rat cortical membranes, [3H]quinuclidinyl benzylate 0.31 nM, 25° C., 60 minutes; read-out: Test D MUSC IC50
Method: Test D--[^3 H]Quinuclidinyl benzylate displacement from rat cortical muscarinic receptor binding sites
(a) Radioligand--DL-[3-^3 H]Quinuclidinyl benzylate (Amersham International, TRK 506, 12 Ci/mmol) was used as a 1 μCi/1 μl solution and this stock solution was diluted 1/13333 in assay buffer and 0.1 ml volumes of this were added to 2 ml binding assay =0.31 nM and =0.0075 μCi/binding assay
(§1) (b) Membrane preparation--As for Test B
(c) Non-specific binding--Non-specific binding was accounted for by the inclusion of 100 μM oxotremorine sesquifumarate in blank binding assays and this required a stock solution of 2 mM in distilled H2 O.
(d) Displacement compounds--As for Test B
(e) Assay protocol--As for Test B with the exception that the binding assays were incubated at 25° C. for 60 minutes.

[3] = biological target: rat cortical α2 receptor; assay: Test C: [3H]Dihydroergocryptine displacement from rat cortical α2 receptor binding sites; settings: rat cortical membranes, [3H]dihydroergocryptine 0.45 nM, 25° C., 45 minutes in the dark; approximately 80% of binding is α2
Method: Test C--[^3 H]Dihydroergocryptine displacement from rat cortical α2 *receptor binding sites
(a) Radioligand--[9,10(n)-^3 H]9,10-Dihydroergocryptine (Amersham International, TRK 555, 17.5 Ci/mmole) was used as a 1 μCi/1 μl solution and this stock solution was diluted 1/6250 in assay buffer and 0.1 ml volumes of this were added to 2 ml binding assays. =0.45 nM and =0.016 μCi/binding assay
*In cortical membranes, [^3 H]dihydroergocryptine binds to both α1 and α2 receptor binding sites under the conditions of assay described here, approximately 80% of the binding is associated with α2 receptors.
as §1
(c) Non-specific binding--As for Test B
(d) Displacing compounds--As for Test B
(e) Assay protocol--As for Test B with the exception that the binding assays were incubated at 25° C. for 45 minutes in the dark.

[4] = biological target: rat cortical α1 receptor; assay: Test B: [3H]Prazosin displacement from rat cortical α1 receptor binding sites; settings: rat cerebral cortex membranes, [3H]prazosin 0.1 nM, 25° C., 30 minutes, pH 7.5
Method: Test B--[^3 H]Pyrazosin displacement from rat cortical α1 receptor binding sites (a) Radioligand--[^3 H]Prazosin (Amersham International, TRK 647, 28 Ci/mmole) was used as a 1 μCi/1 μl solution and this stock solution was diluted 1/18,000 in assay buffer and 0.1 ml volumes of this were added to 2 ml binding assay. =0.1 nM [^3 H]Prazosin and =0.0056 μCi/binding assay (b) Membrane preparation--The cerebral cortices were dissected from male CFHB rats and homogenized in 20 volumes of ice cold 0.32M sucrose using a Teflon/glass homogenizer and the homogenate was centrifuged at 1000 g for 10 minutes. The resulting pellet was discarded and the supernatant was recentrifuged at 30,000 g for 30 minutes. The supernatant was discarded and the pellet was resuspended by homogenization in 50 volumes of 50 mM pH 7.5 Tris HCl buffer (assay buffer). (c) Non-specific binding--Non-specific binding was accounted for by the inclusion of 100 μM 1-noradrenaline in blank binding assays which required a stock solution of 2 mM 1-noradrenaline made up fresh daily in 0.1% 1-ascorbic acid. (d) Displacing compounds--Solutions were prepared at 20x final assay concentration in distilled water. (e) Binding assay protocol--1.3 ml assay buffer, 0.5 ml membrane suspension, 0.1 ml distilled H2 O or drug solution and 0.1 ml [^3 H]pyrazosin dilution Binding assays were made up in ice with the [^3 H]pyrazosin being added last and incubated at 25° C. for 30 minutes. The bound ligand was separated by filtration through Whatman GF/C glass fibre filters under vacuum followed by 2×10 ml rinses of ice cold assay buffer. The filters were dried at 80° C. and counted in 5 ml volumes of ECONOFLUOR (NEN) scintillation cocktail. All binding assays, controls, blanks and each of four displacer concentrations were run in triplicate. IC50 values (Test B) were obtained graphically from log dose versus percent inhibition of specific binding plots.

Row | SMILES | IC50 [1] [nM] | IC50 [2] [nM] | IC50 [3] [nM] | IC50 [4] [nM]
1 | O=c1c2c(sc3ccccc13)CCNC2 [Example 1, 1,2,3,4-tetrahydro-10H-(1)-benzothiopyrano[3,2-c]pyridin-10-one hydrochloride] | 6500 | 32000 | 600 | 6600
2 | CCN1CCc2sc3ccccc3c(=O)c2C1 [Example 13, 2-ethyl-1,2,3,4-tetrahydro-10H-(1)-benzothiopyrano[3,2-c]pyridin-10-one hydrochloride] | 1000 | 44700 | 290 | 1500
3 | O=c1c2c(sc3ccc(Cl)cc13)CCNC2 [Example 7, 8-chloro-1,2,3,4-tetrahydro-10H-(1)-benzothiopyrano[3,2-c]pyridin-10-one hydrochloride] | 5100 | 85100 | 2200 | > 10000
4 | CCCCCN1CCc2sc3ccccc3c(=O)c2C1 [Example 17, 1,2,3,4-tetrahydro-2-n-pentyl-10H-(1)-benzothiopyrano[3,2-c]pyridin-10-one hydrochloride] | 70 | 39800 | 70 | 310
5 | CCCCN1CCc2sc3ccccc3c(=O)c2C1 [Example 14, 2-n-butyl-1,2,3,4-tetrahydro-10H-(1)-benzothiopyrano[3,2-c]pyridin-10-one hydrochloride] | 80 | 75800 | 110 | 890
6 | Cc1ccc2sc3c(c(=O)c2c1)CNCC3 [Example 2, 1,2,3,4-tetrahydro-8-methyl-10H-(1)benzothiopyrano[3,2-c]pyridin-10-one hydrochloride] | > 10000 | 45700 | 3300 | > 10000
7 | CCCCCCN1CCc2sc3ccccc3c(=O)c2C1 [Example 18, 2-n-hexyl-1,2,3,4-tetrahydro-10H-(1)-benzothiopyrano[3,2-c]pyridin-10-one hydrochloride] | 130 | 15800 | 80 | 400

Continued, values first:

Row | IC50 [1] [nM] | IC50 [2] [nM] | IC50 [3] [nM] | IC50 [4] [nM] | SMILES
8 | 760 | 91200 | 2190 | > 10000 | COc1ccc2sc3c(c(=O)c2c1)CN(CC1CCCCC1)CC3 [Example 38, 2-cyclohexylmethyl-8-methoxy-1,2,3,4-tetrahydro-10H-(1)-benzothiopyrano[3,2-c]pyridin-10-one hydrochloride]
9 | 4200 | > 100000 | 3000 | 5900 | NC(=O)CCN1CCc2sc3ccccc3c(=O)c2C1 [Example 23, 2-(2-carbamoylethyl)-1,2,3,4-tetrahydro-10H-(1)-benzothiopyrano[3,2-c]pyridin-10-one hydrochloride]
10 | 10 | > 100000 | 230 | 2700 | O=c1c2c(sc3ccccc13)CCN(CC1CCCCC1)C2 [Example 20, 2-cyclohexylmethyl-1,2,3,4-tetrahydro-10H-(1)-benzothiopyrano[3,2-c]pyridin-10-one hydrochloride]
11 | 2810 | 37200 | 390 | 3980 | C=CCN1CCc2sc3ccccc3c(=O)c2C1 [Example 34]
12 | 60 | 50000 | 50 | 690 | O=c1c2c(sc3ccccc13)CCN(CC1CCC1)C2 [Example 26, 2-cyclobutylmethyl-1,2,3,4-tetrahydro-10H-(1)-benzothiopyrano[3,2-c]pyridin-10-one]
13 | > 10000 | > 100000 | > 10000 | > 10000 | O=C(CN1CCc2sc3ccccc3c(=O)c2C1)c1ccccc1 [Example 33]
14 | 220 | 43000 | 60 | 1230 | O=c1c2c(sc3ccccc13)CCN(CC1CC1)C2 [Example 25, 2-cyclopropylmethyl-1,2,3,4-tetrahydro-10H-(1)-benzothiopyrano[3,2-c]pyridin-10-one]
